Read-outs that look alike come from different tables or passages of the source. Blank lines part the entries; values can stand above or below the compound they belong to.
What was measured:
Type in all cases: biochemical
IRE1α kinase = IRE1α kinase (Homo sapiens (Human), UniProt O75460); test: IRE1α kinase IC50
IRE1α RNase = IRE1α RNase (Homo sapiens (Human), UniProt O75460); test: IRE1α RNase IC50
IRE1β kinase = IRE1β kinase (Homo sapiens (Human), UniProt Q76MJ5); test: IRE1β kinase IC50
IRE1β kinase, sequence (Q76MJ5 35-926): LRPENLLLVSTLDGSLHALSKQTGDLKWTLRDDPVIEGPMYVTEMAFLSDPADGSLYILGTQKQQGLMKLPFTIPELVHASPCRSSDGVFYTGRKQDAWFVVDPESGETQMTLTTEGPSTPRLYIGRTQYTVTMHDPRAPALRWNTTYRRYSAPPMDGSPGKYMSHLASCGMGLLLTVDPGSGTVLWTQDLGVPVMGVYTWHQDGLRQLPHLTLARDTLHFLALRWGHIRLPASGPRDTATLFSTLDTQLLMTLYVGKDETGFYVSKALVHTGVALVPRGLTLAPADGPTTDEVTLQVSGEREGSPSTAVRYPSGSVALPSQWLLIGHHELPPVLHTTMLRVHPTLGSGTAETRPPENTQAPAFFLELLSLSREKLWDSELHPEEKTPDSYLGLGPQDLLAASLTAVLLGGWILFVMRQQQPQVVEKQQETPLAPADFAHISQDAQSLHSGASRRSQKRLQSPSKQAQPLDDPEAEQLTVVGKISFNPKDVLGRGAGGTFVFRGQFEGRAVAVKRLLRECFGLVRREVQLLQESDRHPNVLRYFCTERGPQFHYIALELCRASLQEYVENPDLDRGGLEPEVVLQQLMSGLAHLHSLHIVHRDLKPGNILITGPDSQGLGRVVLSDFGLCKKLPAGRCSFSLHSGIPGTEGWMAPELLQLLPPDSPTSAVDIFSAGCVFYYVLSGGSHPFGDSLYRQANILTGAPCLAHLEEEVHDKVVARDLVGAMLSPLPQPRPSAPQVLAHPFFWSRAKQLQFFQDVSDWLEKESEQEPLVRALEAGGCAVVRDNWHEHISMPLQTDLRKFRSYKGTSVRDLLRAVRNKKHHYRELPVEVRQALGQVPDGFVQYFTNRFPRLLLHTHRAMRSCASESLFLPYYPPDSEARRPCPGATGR

IRE1α kinase, sequence (O75460 19-977): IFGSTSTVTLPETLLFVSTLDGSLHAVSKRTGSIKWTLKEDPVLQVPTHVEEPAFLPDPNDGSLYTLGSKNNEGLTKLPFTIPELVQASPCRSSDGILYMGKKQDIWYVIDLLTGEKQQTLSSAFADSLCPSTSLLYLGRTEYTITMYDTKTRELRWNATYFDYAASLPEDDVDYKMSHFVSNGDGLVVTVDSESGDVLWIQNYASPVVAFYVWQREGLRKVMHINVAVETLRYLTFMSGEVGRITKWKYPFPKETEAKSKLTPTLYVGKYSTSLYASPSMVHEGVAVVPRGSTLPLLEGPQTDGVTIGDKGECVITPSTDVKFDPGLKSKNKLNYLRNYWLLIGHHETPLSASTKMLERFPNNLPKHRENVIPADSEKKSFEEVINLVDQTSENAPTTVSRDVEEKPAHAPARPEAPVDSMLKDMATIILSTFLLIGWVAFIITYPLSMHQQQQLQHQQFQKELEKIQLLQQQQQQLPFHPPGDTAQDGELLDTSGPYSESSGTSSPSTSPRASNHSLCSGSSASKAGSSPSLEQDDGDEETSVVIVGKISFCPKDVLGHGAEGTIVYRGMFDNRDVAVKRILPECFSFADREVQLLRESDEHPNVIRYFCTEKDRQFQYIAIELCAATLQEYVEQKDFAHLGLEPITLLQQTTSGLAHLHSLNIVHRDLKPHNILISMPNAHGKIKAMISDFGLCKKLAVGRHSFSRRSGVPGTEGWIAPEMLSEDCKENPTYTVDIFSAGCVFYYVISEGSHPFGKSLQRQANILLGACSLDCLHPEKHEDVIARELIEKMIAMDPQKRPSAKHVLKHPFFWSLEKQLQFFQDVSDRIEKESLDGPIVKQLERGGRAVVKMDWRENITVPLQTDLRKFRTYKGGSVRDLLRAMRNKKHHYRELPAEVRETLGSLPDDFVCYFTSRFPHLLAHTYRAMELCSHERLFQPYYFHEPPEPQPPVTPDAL
IRE1α RNase, sequence (O75460 19-977): as above

IC50 (IRE1α kinase; (HF)): 119 nM
IC50 (IRE1α RNase; (HF)): 24 nM
SMILES: O=S(=O)(Cc1ccccc1Cl)Nc1ccc(Oc2ncsc2-c2ccnc(N[C@H]3CCCNC3)n2)cc1F [compound 11, (S)-1-(2-chlorophenyl)-N-(2-fluoro-4-(5-(2-(piperidin-3-ylamino)pyrimidin-4-yl)thiazol-4-yloxy)phenyl)methane sulfonamide]

IC50 (IRE1α kinase): 117 nM
IC50 (IRE1β kinase): 32 nM
IC50 (IRE1α RNase; (HF)): 46 nM
SMILES: O=S(=O)(Nc1ccc(Oc2ncsc2-c2ccnc(N[C@H]3CCCNC3)n2)cc1F)c1ccccc1Cl [compound 25]

IC50 (IRE1α RNase; (HF)): 153 nM
SMILES: c1cc(Cc2nc3ccccc3[nH]2)cc(Oc2ncsc2-c2ccnc(N[C@H]3CCCNC3)n2)c1 [compound 35, (S)-4-(4-(3-((1H-benzo[d]imidazol-2-yl)methyl)phenoxy)thiazol-5-yl)-N-(piperidin-3-yl)pyrimidin-2-amine]

IC50 (IRE1α kinase; (HF)): 1140 nM
SMILES: Cc1cc(NS(=O)(=O)c2ccccc2Cl)ccc1Oc1ncsc1-c1ccnc(N[C@H]2CCCNC2)n1 [compound 39]

IC50 (IRE1α kinase): 10 nM
IC50 (IRE1β kinase): 181 nM
IC50 (IRE1α RNase; (HF)): 8.3 nM
SMILES: O=S(=O)(Nc1cccc2c(Oc3ncsc3-c3ccnc(N[C@H]4CCCNC4)n3)cccc12)c1ccccc1Cl [compound 47, (S)-2-chloro-N-(5-(5-(2-(piperidin-3-ylamino)pyrimidin-4-yl)thiazol-4-yloxy)naphthalen-1-yl)benzenesulfonamide]

IC50 (IRE1α kinase): 961 nM
IC50 (IRE1β kinase): 1570 nM
SMILES: O=S(=O)(Cc1ccccc1Cl)Nc1ccc(Oc2nccnc2-c2ccnc(N[C@H]3CCCNC3)n2)cc1F [compound 73, (S)-1-(2-chlorophenyl)-N-(2-fluoro-4-(3-(2-(piperidin-3-ylamino)pyrimidin-4-yl)pyrazin-2-yloxy)phenyl) methane sulfonamide]

IC50 (IRE1α kinase): 6200 nM
IC50 (IRE1β kinase): 2100 nM
SMILES: O=S(=O)(Nc1ccc(Oc2nccnc2-c2ccnc(N[C@H]3CCCNC3)n2)cc1F)c1ccccc1Cl [compound 77, (S)-2-chloro-N-(2-fluoro-4-(3-(2-(piperidin-3-ylamino)pyrimidin-4-yl)pyrazin-2-yloxy)phenyl)benzenesulfonamide]

IC50 (IRE1α kinase): 296 nM
IC50 (IRE1β kinase): 1980 nM
SMILES: O=S(=O)(Nc1ccc(Oc2nccnc2-c2ccnc(N[C@H]3CCCNC3)n2)c2ccccc12)c1ccccc1Cl [compound 84, (S)-2-chloro-N-(4-(3-(2-(piperidin-3-ylamino)pyrimidin-4-yl)pyrazin-2-yloxy)naphthalen-1-yl)benzenesulfonamide]

IC50 (IRE1α kinase): 7300 nM
IC50 (IRE1β kinase): > 10000 nM
SMILES: c1ccc2[nH]c(Cc3ccc(Oc4nccnc4-c4ccnc(N[C@H]5CCCNC5)n4)cc3)nc2c1 [compound 88, (S)-4-(3-(4-((1H-benzo[d]imidazol-2-yl)methyl)phenoxy)pyrazin-2-yl)-N-(piperidin-3-yl)pyrimidin-2-amine]

The remaining lines, values behind:

SMILES: Cc1ccc(C(=O)Nc2ccccc2Cl)cc1Oc1ncsc1-c1ccnc(N[C@H]2CCCNC2)n1 [compound 16, (S)—N-(2-chlorophenyl)-4-methyl-3-(5-(2-(piperidin-3-ylamino)pyrimidin-4-yl)thiazol-4-yloxy)benzamide]
IC50 (IRE1α kinase; (HF)): 307 nM
IC50 (IRE1α kinase; (RB)): 228 nM
IC50 (IRE1β kinase): > 10000 nM

SMILES: Cc1ccc(C(=O)NCc2ccccc2Cl)cc1Oc1ncsc1-c1ccnc(N[C@H]2CCCNC2)n1 [compound 20, (S)—N-(2-chlorobenzyl)-4-methyl-3-(5-(2-(piperidin-3-ylamino)pyrimidin-4-yl)thiazol-4-yloxy) benzamide]
IC50 (IRE1α kinase; (HF)): 55 nM
IRE1α RNase IC50 (IRE1α RNase; result in words, pIRE1α): No inhibition of pIRE1α

SMILES: c1ccc2[nH]c(Cc3ccc(Oc4ncsc4-c4ccnc(N[C@H]5CCCNC5)n4)cc3)nc2c1 [compound 30, (S)-4-(4-(4-((1H-benzo[d]imidazol-2-yl)methyl)phenoxy)thiazol-5-yl)-N-(piperidin-3-yl)pyrimidin-2-amine]
IC50 (IRE1α kinase): 439 nM
IC50 (IRE1β kinase): 8400 nM
IC50 (IRE1α RNase): 118 nM

SMILES: O=S(=O)(NCc1cccc(Oc2ncsc2-c2ccnc(N[C@H]3CCCNC3)n2)c1)c1ccccc1Cl [compound 43, (S)-2-chloro-N-(3-(5-(2-(piperidin-3-ylamino)pyrimidin-4-yl)thiazol-4-yloxy)benzyl)benzenesulfonamide]
IC50 (IRE1α kinase; (HF)): 1600 nM

SMILES: O=C(NCc1ccccc1Cl)c1cccc(Oc2ncsc2-c2ccnc(N[C@H]3CCCNC3)n2)c1 [compound 51, (S)—N-(2-chlorobenzyl)-3-(5-(2-(piperidin-3-ylamino)pyrimidin-4-yl)thiazol-4-yloxy)benzamide]
IC50 (IRE1α kinase; (HF)): 524 nM

SMILES: Cc1ccc(C(=O)N(C)Cc2ccccc2Cl)cc1Oc1ncsc1-c1ccnc(N[C@H]2CCCNC2)n1 [compound 55, (S)—N-(2-chlorobenzyl)-N,4-dimethyl-3-(5-(2-(piperidin-3-ylamino)pyrimidin-4-yl)thiazol-4-yloxy)benzamide]
IC50 (IRE1α kinase; (HF)): 3180 nM

SMILES: Cc1nc(Oc2ccc(NS(=O)(=O)c3ccccc3Cl)c3ccccc23)c(-c2ccnc(N[C@H]3CCCNC3)n2)s1 [compound 67, (S)-2-chloro-N-(4-(2-methyl-5-(2-(piperidin-3-ylamino)pyrimidin-4-yl)thiazol-4-yloxy)naphthalen-1-yl)benzenesulfonamide]
IC50 (IRE1α kinase; (HF)): 63 nM
IC50 (IRE1α RNase; (HF)): 19 nM

SMILES: Cc1ccc2c(NS(=O)(=O)c3ccccc3Cl)cccc2c1Oc1nccnc1-c1ccnc(N[C@H]2CCCNC2)n1 [compound 96]
IC50 (IRE1α kinase): 98 nM
IC50 (IRE1β kinase): 120 nM
IC50 (IRE1α RNase; (HF)): 117 nM
